According to patent US20260191968A1, “PROTAC DEGRADERS OF MLLT1 AND/OR MLLT3” (DARK BLUE THERAPEUTICS LTD, priority 2024, published 2026):

What was measured:
MLLT1 = target: T1, MLLT1 (Homo sapiens, UniProt Q03111); experiment: MLLT1 degradation assay in MV4-11 cells (JESS chemiluminescent detection), three concentrations, 24 h; format: cell-based; conditions: with respect to DMSO control
T1 construct: host or cells: MV4-11
T1 sequence (Q03111 1-559): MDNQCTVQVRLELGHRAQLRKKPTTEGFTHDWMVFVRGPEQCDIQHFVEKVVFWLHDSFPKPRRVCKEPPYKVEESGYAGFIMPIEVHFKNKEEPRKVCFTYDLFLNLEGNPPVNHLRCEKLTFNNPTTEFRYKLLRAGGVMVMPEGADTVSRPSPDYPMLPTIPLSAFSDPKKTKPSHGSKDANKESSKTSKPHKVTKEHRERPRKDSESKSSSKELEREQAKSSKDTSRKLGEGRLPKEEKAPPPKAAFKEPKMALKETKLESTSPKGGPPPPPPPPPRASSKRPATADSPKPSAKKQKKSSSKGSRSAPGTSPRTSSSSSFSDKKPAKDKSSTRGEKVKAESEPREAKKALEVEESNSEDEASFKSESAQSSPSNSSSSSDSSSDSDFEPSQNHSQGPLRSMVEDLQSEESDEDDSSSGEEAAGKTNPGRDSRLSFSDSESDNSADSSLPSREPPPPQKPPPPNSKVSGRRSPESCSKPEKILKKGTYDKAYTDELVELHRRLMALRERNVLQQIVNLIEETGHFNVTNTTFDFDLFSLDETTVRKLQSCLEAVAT
Summary of the method: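 MV4-11 cells treated 24 h at 37° C, 5% CO2 with 1000, 100 and 10 nM compound (0.1% DMSO final). MLLT1 quantified by automated capillary chemiluminescent immunodetection; band peak area expressed as % degradation relative to DMSO control.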

MV4-11 cells = experiment: MV4-11 cellular proliferative assay, Assay Format B (CTG 2.0, 168 h); format: cell-based; conditions: Homo sapiens, 168 h (7 days), CTG 2.0, read-out: IC50 (MV4-11 cellular proliferative assay, Assay format B)
Summary of the method: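 MV4-11 cells seeded overnight in IMDM + 10% FBS, then exposed to 10-point, 3-fold dilutions from 1 uM or 100 nM top concentration (0.3% DMSO final) for 168 h at 37 °C. CTG 2.0 luminescence read; % viability vs DMSO control fitted by four-parameter logistic regression.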

Row | MLLT1% Degradation @ 0.1 μM (MLLT1) | MLLT1% Degradation @ 1 μM (MLLT1) | IC50 (MV4-11 cells) [µM] | SMILES | MLLT1% Degradation @ 0.01 μM (MLLT1)
1 | A (Category A: A ≥ 75% degradation) | A (Category A: A ≥ 75% degradation) | ≤ 0.1 | CN1CCC[C@@H]1c1cc2cnc(NC(=O)c3ccc(OC4CCN(CC5CCN(c6cccc7c6CN(C6CCC(=O)NC6=O)C7=O)CC5)CC4)nc3)cc2[nH]1 (stereo partly drawn) [Example 125, 6-((1-((1-(2-(2,6-dioxopiperidin-3-yl)-1-oxoisoindolin-4-yl)piperidin-4-yl)methyl)piperidin-4-yl)oxy)-N-(2-((R)-1-methylpyrrolidin-2-yl)-1H-pyrrolo[3,2-c]pyridin-6-yl)nicotinamide] | A (Category A: A ≥ 75% degradation)
2 | A (Category A: A ≥ 75% degradation) | A (Category A: A ≥ 75% degradation) | ≤ 0.1 | CN1CCC[C@@H]1c1cc2cnc(NC(=O)c3ccc(N4CCC(OC5CCN(c6cccc7c6CN(C6CCC(=O)NC6=O)C7=O)CC5)CC4)cc3)cc2[nH]1 (stereo partly drawn) [Example 137, 4-(4-((1-(2-(2,6-dioxopiperidin-3-yl)-1-oxoisoindolin-4-yl)piperidin-4-yl)oxy)piperidin-1-yl)-N-(2-((R)-1-methylpyrrolidin-2-yl)-1H-pyrrolo[3,2-c]pyridin-6-yl)benzamide] | A (Category A: A ≥ 75% degradation)
3 | A (Category A: A ≥ 75% degradation) | A (Category A: A ≥ 75% degradation) | ≤ 0.1 | CN1CCC[C@@H]1c1cc2cnc(NC(=O)c3ccc(N4CCC(CCN5CCN(c6cccc7c6CN(C6CCC(=O)NC6=O)C7=O)CC5)CC4)nc3)cc2[nH]1 (stereo partly drawn) [Example 138, 6-(4-(2-(4-(2-(2,6-dioxopiperidin-3-yl)-1-oxoisoindolin-4-yl)piperazin-1-yl)ethyl)piperidin-1-yl)-N-(2-((R)-1-methylpyrrolidin-2-yl)-1H-pyrrolo[3,2-c]pyridin-6-yl)nicotinamide] | A (Category A: A ≥ 75% degradation)
4 | A (Category A: A ≥ 75% degradation) | A (Category A: A ≥ 75% degradation) | ≤ 0.1 | CN1CCC[C@@H]1c1cc2cnc(NC(=O)c3ccc(N4CCC(COC5CCN(c6cccc7c6CN(C6CCC(=O)NC6=O)C7=O)CC5)CC4)nc3)cc2[nH]1 (stereo partly drawn) [Example 140, 6-(4-(((1-(2-(2,6-dioxopiperidin-3-yl)-1-oxoisoindolin-4-yl)piperidin-4-yl)oxy)methyl)piperidin-1-yl)-N-(2-((R)-1-methylpyrrolidin-2-yl)-1H-pyrrolo[3,2-c]pyridin-6-yl)nicotinamide] | B (Category B: 50% ≤ B < 75% degradation)

Further lines, the compound ahead of its results:

Row | SMILES | MLLT1% Degradation @ 0.1 μM (MLLT1) | MLLT1% Degradation @ 1 μM (MLLT1) | IC50 (MV4-11 cells) [µM] | MLLT1% Degradation @ 0.01 μM (MLLT1)
5 | COc1cc(N2CCN(CC3CCN(c4cccc5c4CN(C4CCC(=O)NC4=O)C5=O)CC3)CC2)cc(F)c1C(=O)Nc1cc2[nH]c([C@H]3CCCN3C)cc2cn1 (stereo partly drawn) [Example 120, 4-(4-((1-(2-(2,6-dioxopiperidin-3-yl)-1-oxoisoindolin-4-yl)piperidin-4-yl)methyl)piperazin-1-yl)-2-fluoro-6-methoxy-N-(2-((R)-1-methylpyrrolidin-2-yl)-1H-pyrrolo[3,2-c]pyridin-6-yl)benzamide] | A (Category A: A ≥ 75% degradation) | C (Category C: 25% ≤ C < 50% degradation) | ≤ 0.1 | B (Category B: 50% ≤ B < 75% degradation)
6 | CN1CCC[C@@H]1c1cc2cnc(NC(=O)c3ccc(OC4CCN(CC5CCN(c6ccc7c(c6)C(=O)N(C6CCC(=O)NC6=O)C7=O)CC5)CC4)cc3)cc2[nH]1 (stereo partly drawn) [Example 124, 4-((1-((1-(2-(2,6-dioxopiperidin-3-yl)-1,3-dioxoisoindolin-5-yl)piperidin-4-yl)methyl)piperidin-4-yl)oxy)-N-(2-((R)-1-methylpyrrolidin-2-yl)-1H-pyrrolo[3,2-c]pyridin-6-yl)benzamide] | A (Category A: A ≥ 75% degradation) | A (Category A: A ≥ 75% degradation) | ≤ 0.1 | B (Category B: 50% ≤ B < 75% degradation)
7 | CN1CCC[C@@H]1c1cc2cnc(NC(=O)c3ccc(N4CCN(Cc5ccc(-c6cccc7c6CN(C6CCC(=O)NC6=O)C7=O)cc5)CC4)nc3)cc2[nH]1 (stereo partly drawn) [Example 129, 6-(4-(4-(2-(2,6-dioxopiperidin-3-yl)-1-oxoisoindolin-4-yl)benzyl)piperazin-1-yl)-N-(2-((R)-1-methylpyrrolidin-2-yl)-1H-pyrrolo[3,2-c]pyridin-6-yl)nicotinamide] | B (Category B: 50% ≤ B < 75% degradation) | C (Category C: 25% ≤ C < 50% degradation) | ≤ 0.1 | B (Category B: 50% ≤ B < 75% degradation)
8 | CN1CCC[C@@H]1c1cc2cnc(NC(=O)c3ccc(CCCN4CCN(c5cccc6c5CN(C5CCC(=O)NC5=O)C6=O)CC4)cc3)cc2[nH]1 (stereo partly drawn) [Example 131, 4-(3-(4-(2-(2,6-dioxopiperidin-3-yl)-1-oxoisoindolin-4-yl)piperazin-1-yl)propyl)-N-(2-((R)-1-methylpyrrolidin-2-yl)-1H-pyrrolo[3,2-c]pyridin-6-yl)benzamide] | A (Category A: A ≥ 75% degradation) | A (Category A: A ≥ 75% degradation) | ≤ 0.1 | B (Category B: 50% ≤ B < 75% degradation)
9 | C[C@H]1CN(CC2CCN(c3cccc4c3CN(C3CCC(=O)NC3=O)C4=O)CC2)CCN1c1ccc(C(=O)Nc2cc3[nH]c([C@H]4CCCN4C)cc3cn2)cc1 (stereo partly drawn) [Example 132, 4-((2S)-4-((1-(2-(2,6-dioxopiperidin-3-yl)-1-oxoisoindolin-4-yl)piperidin-4-yl)methyl)-2-methylpiperazin-1-yl)-N-(2-((R)-1-methylpyrrolidin-2-yl)-1H-pyrrolo[3,2-c]pyridin-6-yl)benzamide] | A (Category A: A ≥ 75% degradation) | B (Category B: 50% ≤ B < 75% degradation) | ≤ 0.1 | B (Category B: 50% ≤ B < 75% degradation)
10 | CN1CCC[C@@H]1c1cc2cnc(NC(=O)c3ccc(OCCN4CCC(c5cccc6c5CN(C5CCC(=O)NC5=O)C6=O)CC4)cc3)cc2[nH]1 (stereo partly drawn) [Example 141, 4-(2-(4-(2-(2,6-dioxopiperidin-3-yl)-1-oxoisoindolin-4-yl)piperidin-1-yl)ethoxy)-N-(2-((R)-1-methylpyrrolidin-2-yl)-1H-pyrrolo[3,2-c]pyridin-6-yl)benzamide] | A (Category A: A ≥ 75% degradation) | A (Category A: A ≥ 75% degradation) | ≤ 0.1 | A (Category A: A ≥ 75% degradation)
11 | CN1CCC[C@@H]1c1cc2cnc(NC(=O)c3ccc(OCCN4CCN(c5cccc6c5CN(C5CCC(=O)NC5=O)C6=O)CC4)cc3)cc2[nH]1 (stereo partly drawn) [Example 142, 4-(2-(4-(2-(2,6-dioxopiperidin-3-yl)-1-oxoisoindolin-4-yl)piperazin-1-yl)ethoxy)-N-(2-((R)-1-methylpyrrolidin-2-yl)-1H-pyrrolo[3,2-c]pyridin-6-yl)benzamide] | A (Category A: A ≥ 75% degradation) | A (Category A: A ≥ 75% degradation) | ≤ 0.1 | A (Category A: A ≥ 75% degradation)
